Data from PMC8876511, “Two out of Three Musketeers Fight against Cancer: Synthesis, Physicochemical, and Biological Properties of Phosphino Cu^I, Ru^II, Ir^III Complexes” (Pharmaceuticals, 2022).

Test system: A549 cells
Test: Annexin V-FITC/PI double staining, flow cytometry
Assay type: cell-based, human
Settings: A549, 50 μM, 24 h
Experimental: The cell death induced by selected Ir(III) and Ru(II) complexes was assessed using Annexin V-FITC/PI double staining. Based on this assay the differentiation of the following cells population was possible: viable cells (Annexin-FITC negative, PI negative), apoptotic cells (Annexin-FITC positive, PI negative), late apoptotic cells (Annexin-FITC positive and PI positive), and necrotic cells (Annexin-FITC negative, PI positive). Treatment of A549 cells with Ir(III) or Ru(II) complexes leads to a dose-dependent increase in the percentage of cells in each phase (Figure 5).
Cell death was quantified using the AnnexinV-FITC/PI double staining kit (Sigma Aldrich). The cells (1 × 10^5 per well) were cultured overnight in 12-well plates. Then, cells were treated with tested compounds for 24 h. After this time, cells were passaged, collected by centrifugation, and washed twice in Hank’s Balanced Salt Solution (HBBS). The cells were then re-suspended in 500 μL binding buffer and stained with annexin V-FITC and PI according to the manufacturer’s instructions (Sigma Aldrich). Stained A549 cells were then examined using a Guava® easyCyte™ flow cytometer equipped with a 488 nm laser. The obtained data were analyzed using InCyte software (MerckMillipore, Burlington, MA, USA).

Ru(η^6-p-cymene)Cl2Ph2PCH2N(CH2CH3)2 [1b]
late apoptotic cells (upper right quadrant): 30%
